This is an account of results in patent US9624218B2 (Eli Lilly and Company, priority 2014, dated 2017).

SMILES strings stand for the structures. pEC50, pIC50: −log10 of the molar value. Read-outs that look alike come from different tables or passages of the source.

For experiment [1], the system named is Wnt-inducible genes (TCF/LEF luciferase reporter in DLD-1 TOPFlash cells). The experiment is described as follows: cells. The conditions noted are these: Homo sapiens, DLD-1, 24 h, read-out: Wnt-inducible gene expression inhibition IC50, DLD-1 TOPFlash cells, 24 hours; Mean ± SEM.
Experiment [2] deals with EGFP-Axin2 fusion protein. To be noted: read-out: Axin2 Stabilization EC50; HEK293 EGFP-Axin2 cells, 24 hours; Mean ± SEM.
Experiment [3] deals with Wnt-inducible genes (TCF/LEF luciferase reporter in DLD-1 TOPFlash cells). The conditions noted are these: read-out: Wnt-inducible gene expression inhibition IC50, 24 hours, Mean ± SEM.

What is called pIC50 is −log10 of the IC50, conventionally taken in molar units. In general, pEC50 refers to −log10 of the EC50, conventionally taken in molar units. On to `CC(c1ncccn1)N1CCN(c2nc3c(c(=O)[nH]2)CCCN3C)CC1` (racemic) [Example 7, 8-Methyl-2-[4-(1-pyrimidin-2-ylethyl)piperazin-1-yl]-3,5,6,7-tetrahydropyrido[2,3-d]pyrimidin-4-one], for which the pIC50 in experiment [1] is 7.84. The pEC50 in experiment [2] was 6.92.
On the same counts, the results for `CC(c1ncccn1)N1CCN(c2nc3c(c(=O)[nH]2)CCCN3C)CC1` (single isomer, unassigned; isomer 1) [Example 8, 8-Methyl-2-[4-(1-pyrimidin-2-ylethyl)piperazin-1-yl]-3,5,6,7-tetrahydropyrido[2,3-d]pyrimidin-4-one, Isomer 1] are 7.74 and 7.15.
As to `CC(c1ncccn1)N1CCN(c2nc3c(c(=O)[nH]2)CCCN3C)CC1` (single isomer, unassigned; isomer 2) [Example 9, 8-Methyl-2-[4-(1-pyrimidin-2-ylethyl)piperazin-1-yl]-3,5,6,7-tetrahydropyrido[2,3-d]pyrimidin-4-one, Isomer 2], in experiment [2], the pEC50 was 7.15. Further, the pIC50 in experiment [3] was 7.55.
For the molecule `CCC(c1ncccn1)N1CCN(c2nc3c(c(=O)[nH]2)CCCN3C)CC1` (single isomer, unassigned; isomer 2) [Example 12, 8-Methyl-2-[4-(1-pyrimidin-2-ylpropyl)piperazin-1-yl]-3,5,6,7-tetrahydropyrido[2,3-d]pyrimidin-4-one, Isomer 2], the pEC50 in experiment [2] was 6.91. Also, the pIC50 in experiment [3] is 7.71.
Turning to `CN1CCCc2c1nc(N1CCN(Cc3ncccc3Cl)CC1)[nH]c2=O` [Example 2, 2-[4-[(3-Chloro-2-pyridyl)methyl]piperazin-1-yl]-8-methyl-3,5,6,7-tetrahydropyrido[2,3-d]pyrimidin-4-one], the pIC50 in experiment [1] was 8.09. In experiment [2], the pEC50 was 7.49.
With `CN1CCCc2c1nc(N1CCN(Cc3ncccc3Br)CC1)[nH]c2=O` [Example 3, 2-[4-[(3-Bromo-2-pyridyl)methyl]piperazin-1-yl]-8-methyl-3,5,6,7-tetrahydropyrido[2,3-d]pyrimidin-4-one], the pIC50 in experiment [1] is 8.06. For the same molecule, the pEC50 in experiment [2] is 7.74.
As to `CN1CCCc2c1nc(N1CCN(Cc3ncccc3O)CC1)[nH]c2=O` [Example 4, 2-[4-[(3-Hydroxy-2-pyridyl)methyl]piperazin-1-yl]-8-methyl-3,5,6,7-tetrahydropyrido[2,3-d]pyrimidin-4-one], the pIC50 in experiment [1] was 8.17. For the same molecule, the pEC50 in experiment [2] is 7.57.
On the same counts, the results for `CCC(c1ncccn1)N1CCN(c2nc3c(c(=O)[nH]2)CCCN3C)CC1` (stereo not shown) [Example 10, 8-Methyl-2-[4-(1-pyrimidin-2-ylpropyl)piperazin-1-yl]-3,5,6,7-tetrahydropyrido[2,3-d]pyrimidin-4-one] are 6.77 and 6.23.
`COc1ccnc(CN2CCN(c3nc4c(c(=O)[nH]3)CCCN4C)CC2)n1` [Example 13, 2-[4-[(4-methoxypyrimidin-2-yl)methyl]piperazin-1-yl]-8-methyl-3,5,6,7-tetrahydropyrido[2,3-d]pyrimidin-4-one]: in experiment [1], the negative-log IC50 (pIC50) was 7.64. Also, the pEC50 in experiment [2] was 7.00.
For the molecule `Cc1ccnc(CN2CCN(c3nc4c(c(=O)[nH]3)CCCN4C)CC2)n1` [Example 14, 8-Methyl-2-[4-[(4-methylpyrimidin-2-yl)methyl]piperazin-1-yl]-3,5,6,7-tetrahydropyrido[2,3-d]pyrimidin-4-one], the pIC50 in experiment [1] was 8.03. Further, the pEC50 in experiment [2] was 7.28.
In the case of `CN1CCCc2c1nc(N1CCN(Cc3ncc(C(F)(F)F)cn3)CC1)[nH]c2=O` [Example 15, 8-Methyl-2-[4-[[5-(trifluoromethyl)pyrimidin-2-yl]methyl)piperazin-1-yl]-3,5,6,7-tetrahydropyrido[2,3-d]pyrimidin-4-one], the pIC50 in experiment [1] is 7.81. Also, in experiment [2], the pEC50 was 6.94.
As to `CN1CCCc2c1nc(N1CCN(Cc3nccc(C(F)(F)F)n3)CC1)[nH]c2=O` [Example 16, 8-Methyl-2-[4-[[4-(trifluoromethyl)pyrimidin-2-yl]methyl]piperazin-1-yl]-3,5,6,7-tetrahydropyrido[2,3-d]pyrimidin-4-one], in experiment [1], the pIC50 is 6.99. Also, the pEC50 in experiment [2] was 6.29.
For `Cc1cnc(CN2CCN(c3nc4c(c(=O)[nH]3)CCCN4C)CC2)nc1` [Example 17, 8-Methyl-2-[4-[(5-methylpyrimidin-2-yl)methyl]piperazin-1-yl]-3,5,6,7-tetrahydropyrido[2,3-d]pyrimidin-4-one], in that order: 7.43 and 6.70.
Take `CN1CCCc2c1nc(N1CCN(Cc3ncc(Cl)cn3)CC1)[nH]c2=O` [Example 18, 2-[4-[(5-Chloropyrimidin-2-yl)methyl]piperazin-1-yl]-8-methyl-3,5,6,7-tetrahydropyrido[2,3-d]pyrimidin-4-one]: the pIC50 in experiment [1] was 6.81. In addition, the pEC50 in experiment [2] was 6.05.
For `CN1CCCc2c1nc(N1CCN(Cc3ccccn3)CC1)[nH]c2=O` [Example 19, 8-Methyl-2-[4-(2-pyridylmethyl)piperazin-1-yl]-3,5,6,7-tetrahydropyrido[2,3-d]pyrimidin-4-one], in that order: 7.90 and 7.20.
Regarding `CN1CCCc2c1nc(N1CCN(Cc3ncccc3F)CC1)[nH]c2=O` [Example 20, 2-[4-[(3-Fluoro-2-pyridyl)methyl]piperazin-1-yl]-8-methyl-3,5,6,7-tetrahydropyrido[2,3-d]pyrimidin-4-one], the pIC50 in experiment [1] was 7.65. The pEC50 in experiment [2] was 7.11.
As for `CN1CCCc2c1nc(N1CCN(Cc3ccccc3Cl)CC1)[nH]c2=O` [Example 38, 2-[4-[(2-Chlorophenyl)methyl]piperazin-1-yl]-8-methyl-3,5,6,7-tetrahydropyrido[2,3-d]pyrimidin-4-one], the pIC50 in experiment [1] was 7.65. Besides, the pEC50 in experiment [2] was 7.46.
On the same counts, the results for `CN1CCCc2c1nc(N1CCN(Cc3ncc(F)cn3)CC1)[nH]c2=O` [Example 39, 2-[4-[(5-Fluoropyrimidin-2-yl)methyl]piperazin-1-yl]-8-methyl-3,5,6,7-tetrahydropyrido [2,3-d]pyrimidin-4-one] are 7.69 and 6.74.
For `CN1CCCc2c1nc(N1CCN(Cc3ncccc3C#N)CC1)[nH]c2=O` [Example 40, 2-[[4-(8-Methyl-4-oxo-3,5,6,7-tetrahydropyrido[2,3-d]pyrimidin-2-yl)piperazin-1-yl]methyl]pyridine-3-carbonitrile], in that order: 8.16 and 7.40.
In the case of `CN1CCCc2c1nc(N1CCN(Cc3nccc(Cl)n3)CC1)[nH]c2=O` [Example 41, 2-[4-[(4-Chloropyrimidin-2-yl)methyl]piperazin-1-yl]-8-methyl-3,5,6,7-tetrahydropyrido[2,3-d]pyrimidin-4-one], in experiment [2], the pEC50 is 7.21.
Regarding `CN1CCCc2c1nc(N1CCN(Cc3cnccn3)CC1)[nH]c2=O` [Example 42, 8-Methyl-2-[4-(pyrazin-2-ylmethyl)piperazin-1-yl]-3,5,6,7-tetrahydropyrido[2,3-d]pyrimidin-4-one], the pIC50 in experiment [1] was 7.66. For the same molecule, the pEC50 in experiment [2] is 6.85.
For the molecule `CN1CCCc2c1nc(N1CCN(Cc3nccnc3Cl)CC1)[nH]c2=O` [Example 43, 2-[4-[(3-Chloropyrazin-2-yl)methyl]piperazin-l-yl]-8-methyl-3,5,6,7-tetrahydropyrido[2,3-d]pyrimidin-4-one], in experiment [2], the pEC50 is 7.13.
Consider `Cc1nccnc1CN1CCN(c2nc3c(c(=O)[nH]2)CCCN3C)CC1` [Example 44, 8-Methyl-2-[4-[(3-methyl-pyrazin-2-yl)methyl]piperazin-1-yl]-3,5,6,7-tetrahydropyrido[2,3-d]pyrimidin-4-one], for which, in experiment [1], the pIC50 is 7.95. For the same molecule, the pEC50 in experiment [2] is 6.93.
As to `CN1CCCc2c1nc(N1CCN(Cc3ncc(F)cc3F)CC1)[nH]c2=O` [Example 45, 2-[4-[(3,5-Difluoro-2-pyridyl)methyl]piperazin-1-yl]-8-methyl-3,5,6,7-tetrahydropyrido[2,3-d]pyrimidin-4-one], the pIC50 in experiment [1] was 7.73. For the same molecule, the pEC50 in experiment [2] is 6.84.
